In patent publication US5137892A, “Quinoline, naphthyridine and pyridobenzoxazine derivatives” (Abbott Laboratories, priority 1990, dated 1992):
≈ marks a conversion by molar mass, not a printed value.

What was measured:
Assay type in all cases: cell-based
[1] = test system: Staphylococcus aureus ATCC 6538P; experiment: In Vitro Antibacterial Activity, agar dilution MIC; conditions: S. aureus ATCC 6538P; BHI agar dilution, 20-24 hours; unit assumed
Method: (§1) The activity of the compounds of the present invention was tested against a wide variety of bacteria using standard assay procedures. Minimum inhibitory concentrations (MICs) were determined by the agar dilution method, described below, using Brain Heart Infusion agar.
(§2) Twelve petri dishes were prepared, each containing successive aqueous 2-fold dilutions of the test compounds mixed with 10 mL of sterilized Brain Heart Infusion (BHI) agar. Each plate was inoculated with 100-fold (or 10-fold, for slow-growing strains such as Micrococcus and Streptococcus) dilutions of up to 32 different microorganisms using a Steers replicator block calibrated to deliver approximately 10^4 colony forming units (CFUs). The inoculated plates were incubated at about 35°-37° C. for approximately 20-24 hours. In addition, a control plate, using BHI agar containing no test compound, was prepared and incubated at the beginning and at the end of each test. Ciprofloxacin was used as the reference antibiotic.
(§3) The MIC was defined as the lowest concentration of test compound yielding no growth (a slight haze or sparsely isolated colonies at the inoculum spot as compared to the growth control contaning no test compound.

[2] = test system: Streptococcus pyogenes 2548 INDUC; experiment: In Vitro Antibacterial Activity, agar dilution MIC; conditions: S. pyogenes 2548 INDUC; BHI agar dilution, 20-24 hours; unit assumed
Method: as §1, §2, §3

[3] = test system: Streptococcus bovis A5169; experiment: In Vitro Antibacterial Activity, agar dilution MIC; conditions: S. bovis A5169; BHI agar dilution, 20-24 hours; unit assumed
Method: as §1, §2, §3

Pseudomonas cepacia 2961 = experiment: In Vitro Antibacterial Activity, agar dilution MIC; conditions: P. cepacia 2961; BHI agar dilution, 20-24 hours; unit assumed
Method: as §1, §2, §3

[4] = test system: Staphylococcus aureus A-5278; experiment: In Vitro Antibacterial Activity, agar dilution MIC; conditions: S. aureus A-5278; BHI agar dilution, 20-24 hours; unit assumed
Method: as §1, §2, §3

Escherichia coli KNK 437 = experiment: In Vitro Antibacterial Activity, agar dilution MIC; conditions: E. coli KNK 437; BHI agar dilution, 20-24 hours; unit assumed
Method: as §1, §2, §3

[5] = test system: Klebsiella pneumoniae ATCC 8045; experiment: In Vitro Antibacterial Activity, agar dilution MIC; conditions: K. pneumoniae ATCC 8045; BHI agar dilution, 20-24 hours; unit assumed
Method: as §1, §2, §3

[6] = test system: Providencia stuartii CMX 640; experiment: In Vitro Antibacterial Activity, agar dilution MIC; conditions: P. stuartii CMX 640; BHI agar dilution, 20-24 hours; unit assumed
Method: as §1, §2, §3

[7] = test system: Enterococcus faecium ATCC 8043; experiment: In Vitro Antibacterial Activity, agar dilution MIC; conditions: E. faecium ATCC 8043; BHI agar dilution, 20-24 hours; unit assumed
Method: as §1, §2, §3

[8] = test system: Staphylococcus aureus A5177; experiment: In Vitro Antibacterial Activity, agar dilution MIC; conditions: S. aureus A5177; BHI agar dilution, 20-24 hours; unit assumed
Method: as §1, §2, §3

[9] = test system: Pseudomonas aeruginosa 5263; experiment: In Vitro Antibacterial Activity, agar dilution MIC; conditions: P. aeruginosa 5263; BHI agar dilution, 20-24 hours; unit assumed
Method: as §1, §2, §3

Escherichia coli DC-2 = experiment: In Vitro Antibacterial Activity, agar dilution MIC; conditions: E. coli DC-2; BHI agar dilution, 20-24 hours; unit assumed
Method: as §1, §2, §3

Escherichia coli JUHL = experiment: In Vitro Antibacterial Activity, agar dilution MIC; conditions: E. coli JUHL; BHI agar dilution, 20-24 hours; unit assumed
Method: as §1, §2, §3

[10] = test system: Micrococcus luteus ATCC 4698; experiment: In Vitro Antibacterial Activity, agar dilution MIC; conditions: M. luteus ATCC 4698; BHI agar dilution, 20-24 hours; unit assumed
Method: as §1, §2, §3

[11] = test system: Pseudomonas aeruginosa BMH10; experiment: In Vitro Antibacterial Activity, agar dilution MIC; conditions: P. aeruginosa BMH10; BHI agar dilution, 20-24 hours; unit assumed
Method: as §1, §2, §3

[12] = test system: Streptococcus agalactaciae CMX 508; experiment: In Vitro Antibacterial Activity, agar dilution MIC; conditions: S. agalactaciae CMX 508; BHI agar dilution, 20-24 hours; unit assumed
Method: as §1, §2, §3

[13] = test system: Streptococcus pyogenes 930 CONST; experiment: In Vitro Antibacterial Activity, agar dilution MIC; conditions: S. pyogenes 930 CONST; BHI agar dilution, 20-24 hours; unit assumed
Method: as §1, §2, §3

[14] = test system: Streptococcus pyogenes EES61; experiment: In Vitro Antibacterial Activity, agar dilution MIC; conditions: S. pyogenes EES61; BHI agar dilution, 20-24 hours; unit assumed
Method: as §1, §2, §3

[15] = test system: Staphylococcus aureus 1775; experiment: In Vitro Antibacterial Activity, agar dilution MIC; conditions: S. aureus 1775; BHI agar dilution, 20-24 hours; unit assumed
Method: as §1, §2, §3

[16] = test system: Staphylococcus aureus NCTC 10649; experiment: In Vitro Antibacterial Activity, agar dilution MIC; conditions: S. aureus NCTC 10649; BHI agar dilution, 20-24 hours; unit assumed
Method: as §1, §2, §3

[17] = test system: Pseudomonas aeruginosa A5007; experiment: In Vitro Antibacterial Activity, agar dilution MIC; conditions: P. aeruginosa A5007; BHI agar dilution, 20-24 hours; unit assumed
Method: as §1, §2, §3

[18] = test system: Pseudomonas aeruginosa K799/WT; experiment: In Vitro Antibacterial Activity, agar dilution MIC; conditions: P. aeruginosa K799/WT; BHI agar dilution, 20-24 hours; unit assumed
Method: as §1, §2, §3

[19] = test system: Staphylococcus aureus 642A; experiment: In Vitro Antibacterial Activity, agar dilution MIC; conditions: S. aureus 642A; BHI agar dilution, 20-24 hours; unit assumed
Method: as §1, §2, §3

Staphylococcus aureus 45 = experiment: In Vitro Antibacterial Activity, agar dilution MIC; conditions: S. aureus 45; BHI agar dilution, 20-24 hours; unit assumed
Method: as §1, §2, §3

Escherichia coli SS = experiment: In Vitro Antibacterial Activity, agar dilution MIC; conditions: E. coli SS; BHI agar dilution, 20-24 hours; unit assumed
Method: as §1, §2, §3

[20] = test system: Enterobacter aerogenes ATCC 13048; experiment: In Vitro Antibacterial Activity, agar dilution MIC; conditions: E. aerogenes ATCC 13048; BHI agar dilution, 20-24 hours; unit assumed
Method: as §1, §2, §3

[21] = test system: Micrococcus luteus ATCC 9341; experiment: In Vitro Antibacterial Activity, agar dilution MIC; conditions: M. luteus ATCC 9341; BHI agar dilution, 20-24 hours; unit assumed
Method: as §1, §2, §3

[22] = test system: Pseudomonas aeruginosa 2862; experiment: In Vitro Antibacterial Activity, agar dilution MIC; conditions: P. aeruginosa 2862; BHI agar dilution, 20-24 hours; unit assumed
Method: as §1, §2, §3

[23] = test system: Staphylococcus aureus CMX 553; experiment: In Vitro Antibacterial Activity, agar dilution MIC; conditions: S. aureus CMX 553; BHI agar dilution, 20-24 hours; unit assumed
Method: as §1, §2, §3

Escherichia coli H560 = experiment: In Vitro Antibacterial Activity, agar dilution MIC; conditions: E. coli H560; BHI agar dilution, 20-24 hours; unit assumed
Method: as §1, §2, §3

Acinetobacter SP CMX 699 = experiment: In Vitro Antibacterial Activity, agar dilution MIC; conditions: BHI agar dilution, 20-24 hours, unit assumed
Method: as §1, §2, §3

[24] = test system: Staphylococcus epidermidis 3519; experiment: In Vitro Antibacterial Activity, agar dilution MIC; conditions: S. epidermidis 3519; BHI agar dilution, 20-24 hours; unit assumed
Method: as §1, §2, §3

[25] = test system: Pseudomonas aeruginosa K599/61; conditions: P. aeruginosa K599/61; BHI agar dilution, 20-24 hours; unit assumed
Method: as §1, §2, §3

Which MIC values [1] does the source give for O=C(O)c1cn(C2CC2)c2cc(N3CCNCC3)c(F)cc2c1=O [Cipro, Ciprofloxacin, reference compound] here?
Its MIC values is 0.2 µg/mL (≈ 0.604 µM).

What about the MIC values [2] of the same molecule?
The MIC values was 0.39 µg/mL (≈ 1.18 µM).

And the MIC values [3]?
The MIC values was 1.56 µg/mL (≈ 4.71 µM).

And the MIC values (Pseudomonas cepacia 2961)?
The MIC values was 3.1 µg/mL (≈ 9.36 µM).

What about the MIC values [4] of the same molecule?
The MIC values was 0.39 µg/mL (≈ 1.18 µM).

What about the MIC values (Escherichia coli KNK 437) of the same molecule?
Its MIC values is 0.2 µg/mL (≈ 0.604 µM).

What about the MIC values [5] of the same molecule?
The MIC values was 0.02 µg/mL (≈ 0.0604 µM).

And the MIC values [6]?
The MIC values was 0.78 µg/mL (≈ 2.35 µM).

What about the MIC values [7] of the same molecule?
The MIC values was 0.39 µg/mL (≈ 1.18 µM).

And the MIC values [8]?
The MIC values was 0.39 µg/mL (≈ 1.18 µM).

What about the MIC values [9] of the same molecule?
Its MIC values is 12.5 µg/mL (≈ 37.7 µM).

And the MIC values (Escherichia coli DC-2)?
Its MIC values is 0.2 µg/mL (≈ 0.604 µM).

What about the MIC values (Escherichia coli JUHL) of the same molecule?
Its MIC values is 0.02 µg/mL (≈ 0.0604 µM).

And the MIC values [10]?
The MIC values was 0.78 µg/mL (≈ 2.35 µM).

What about the MIC values [11] of the same molecule?
The MIC values was 0.05 µg/mL (≈ 0.151 µM).

And the MIC values [12]?
The MIC values was 0.39 µg/mL (≈ 1.18 µM).

What about the MIC values [13] of the same molecule?
Its MIC values is 0.78 µg/mL (≈ 2.35 µM).

What about the MIC values [14] of the same molecule?
The MIC values was 0.39 µg/mL (≈ 1.18 µM).

What about the MIC values [15] of the same molecule?
Its MIC values is > 100 µg/mL.

And the MIC values [16]?
The MIC values was 0.39 µg/mL (≈ 1.18 µM).

And the MIC values [17]?
The MIC values was 0.1 µg/mL (≈ 0.302 µM).

And the MIC values [18]?
The MIC values was 0.1 µg/mL (≈ 0.302 µM).

And the MIC values [19]?
The MIC values was 0.39 µg/mL (≈ 1.18 µM).

What about the MIC values (Staphylococcus aureus 45) of the same molecule?
The MIC values was 0.78 µg/mL (≈ 2.35 µM).

And the MIC values (Escherichia coli SS)?
The MIC values was 0.005 µg/mL (≈ 0.0151 µM).

What about the MIC values [20] of the same molecule?
Its MIC values is 0.05 µg/mL (≈ 0.151 µM).

What about the MIC values [21] of the same molecule?
The MIC values was 1.56 µg/mL (≈ 4.71 µM).

What about the MIC values [22] of the same molecule?
The MIC values was 25 µg/mL (≈ 75.4 µM).

And the MIC values [23]?
The MIC values was 0.78 µg/mL (≈ 2.35 µM).

What about the MIC values (Escherichia coli H560) of the same molecule?
Its MIC values is 0.01 µg/mL (≈ 0.0302 µM).

And the MIC values (Acinetobacter SP CMX 699)?
The MIC values was 0.39 µg/mL (≈ 1.18 µM).

And the MIC values [24]?
Its MIC values is 0.2 µg/mL (≈ 0.604 µM).

What about the MIC values [25] of the same molecule?
The MIC values was 0.02 µg/mL (≈ 0.0604 µM).

What does the source list for Cl.Cl.NCC1COC2(CCN(c3cc4c(cc3F)c(=O)c(C(=O)O)cn4-c3ccc(F)cc3F)C2)O1 (stereo not drawn) [Example 159, 1-(2,4-difluorophenyl)-7-(2-aminomethyl-1,4-dioxa-7-azaspiro[4.4]non-7-yl)-6-fluoro-1,4-dihydro-4-oxo-3-quinolinecarboxylic acid dihydrochloride]?
MIC values [1]: 0.2 µg/mL; MIC values [2]: 0.39 µg/mL; MIC values [3]: 0.78 µg/mL; MIC values (Pseudomonas cepacia 2961): 50 µg/mL; MIC values (Escherichia coli KNK 437): 3.1 µg/mL; MIC values [5]: 0.39 µg/mL; MIC values [6]: 25 µg/mL; MIC values [7]: 0.78 µg/mL; MIC values [8]: 0.39 µg/mL; MIC values (Escherichia coli DC-2): 6.2 µg/mL; MIC values (Escherichia coli JUHL): 0.39 µg/mL; MIC values [10]: 6.2 µg/mL; MIC values [11]: 3.1 µg/mL; MIC values [12]: 0.78 µg/mL; MIC values [13]: 0.39 µg/mL; MIC values [14]: 0.39 µg/mL; MIC values [15]: 100 µg/mL; MIC values [16]: 0.2 µg/mL; MIC values [17]: 3.1 µg/mL; MIC values [18]: 3.1 µg/mL; MIC values [19]: 0.39 µg/mL; MIC values (Staphylococcus aureus 45): 0.78 µg/mL; MIC values (Escherichia coli SS): 0.02 µg/mL; MIC values [20]: 0.78 µg/mL; MIC values [21]: 12.5 µg/mL; MIC values [23]: 0.78 µg/mL; MIC values (Escherichia coli H560): 0.2 µg/mL; MIC values (Acinetobacter SP CMX 699): 0.78 µg/mL; MIC values [24]: 0.78 µg/mL; MIC values [25]: 0.39 µg/mL
